In ChEMBL document CHEMBL1201862, “PubChem BioAssay data set” (2004):
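Protocol summary: plate cells (96-well), add compound at 5 concentrations, incubate 48 h, interpolate endpoints linearly. GI50 is the concentration that inhibits growth by half.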 Activity calls are given as the source filed them. No stated cut-off is given here; in the data, active = GI50 up to about 1.1 µM and inactive = higher.

How the values were obtained:
Assay in all cases: NCI tumour cell line growth inhibition, 48 h
[1] = tested on: CCRF-CEM
[2] = tested on: SN12C
[3] = tested on: SK-MEL-28
[4] = tested on: SNB-75
[5] = tested on: BT-549
[6] = tested on: HCT-15
[7] = tested on: HT-29
[8] = tested on: IGROV-1
[9] = tested on: SK-MEL-5
[10] = tested on: Hs-578T
[11] = tested on: MDA-MB-231
[12] = tested on: HOP-92
[13] = tested on: COLO 205
[14] = tested on: SNB-19
[15] = tested on: SF-268
[16] = tested on: SW-620
[17] = tested on: UO-31
[18] = tested on: M14
[19] = tested on: MDA-MB-435
[20] = tested on: Malme-3M

SMILES	GI50 [1]	GI50 [2]	GI50 [3]	GI50 [4]	GI50 [5]	GI50 [6] [µM]	GI50 [7]	GI50 [8]	GI50 [9]	GI50 [10]	GI50 [11]	GI50 [12]	GI50 [13]	GI50 [14]	GI50 [15]	GI50 [16]	GI50 [17]	GI50 [18]	GI50 [19]	GI50 [20]
C=C1C(=O)OC2C1C(=O)C/C(C)=C/CCC1(C)OC21 (centres undefined)	2.79 µM (inactive)	22.1 µM (inactive)	15.2 µM (inactive)	25.4 µM (inactive)	23.3 µM (inactive)	11.4	20.6 µM (inactive)	20.1 µM (inactive)	19.3 µM (inactive)	44.1 µM (inactive)	20.8 µM (inactive)	15.2 µM (inactive)	5.45 µM (inactive)	38.4 µM (inactive)	19.6 µM (inactive)	16.4 µM (inactive)	15.2 µM (inactive)	15.6 µM (inactive)	15.4 µM (inactive)	
O=c1oc2ccccc2cc1-c1cn2c(n1)sc1ccccc12	> 100 µM (inactive)	> 100 µM (inactive)	> 100 µM (inactive)	> 100 µM (inactive)	> 100 µM (inactive)	> 100	1.15 µM (inactive)	> 100 µM (inactive)	> 100 µM (inactive)	> 100 µM (inactive)	> 100 µM (inactive)	> 100 µM (inactive)	> 100 µM (inactive)		52.6 µM (inactive)	> 100 µM (inactive)	> 100 µM (inactive)	> 100 µM (inactive)	29.3 µM (inactive)	
CCCCCCCCCCCCNC(=O)NCC(OCC)OCC	> 10 µM (inactive)	> 10 µM (inactive)	> 10 µM (inactive)	> 10 µM (inactive)	> 10 µM (inactive)	> 10	> 10 µM (inactive)	> 10 µM (inactive)	> 10 µM (inactive)	> 10 µM (inactive)	> 10 µM (inactive)	> 10 µM (inactive)	> 10 µM (inactive)	> 10 µM (inactive)	> 10 µM (inactive)	> 10 µM (inactive)		> 10 µM (inactive)	> 10 µM (inactive)	
O=C1N=C(c2ccccc2)O/C1=C\c1ccccc1		> 100 µM (inactive)	> 100 µM (inactive)	> 100 µM (inactive)	> 100 µM (inactive)	> 100	> 100 µM (inactive)	> 100 µM (inactive)	> 100 µM (inactive)	> 100 µM (inactive)	> 100 µM (inactive)	> 100 µM (inactive)	> 100 µM (inactive)	> 100 µM (inactive)	> 100 µM (inactive)	> 100 µM (inactive)	> 100 µM (inactive)	> 100 µM (inactive)	> 100 µM (inactive)	> 100 µM (inactive)
S=C(N1CCN(c2ccc(Cl)c(Cl)c2)CC1)N1CCN(c2ccc(Cl)c(Cl)c2)CC1	3.42 µM (inactive)		14.7 µM (inactive)		16.2 µM (inactive)	15.4	9.42 µM (inactive)	10.7 µM (inactive)	15.1 µM (inactive)	6.52 µM (inactive)	9.08 µM (inactive)		10.6 µM (inactive)	12.5 µM (inactive)	14.4 µM (inactive)	17.5 µM (inactive)	13.1 µM (inactive)	15.6 µM (inactive)	15.4 µM (inactive)	14.2 µM (inactive)
CCCc1nnc2sc(COc3ccc(OCc4nn5c(CCC)nnc5s4)c(Cl)c3)nn12		29.4 µM (inactive)	26.1 µM (inactive)	22.2 µM (inactive)	23.9 µM (inactive)	24.9	29.4 µM (inactive)	24.9 µM (inactive)	7.35 µM (inactive)	47 µM (inactive)	36.1 µM (inactive)	20.4 µM (inactive)	23.2 µM (inactive)	33.8 µM (inactive)	23 µM (inactive)	40.3 µM (inactive)	14.6 µM (inactive)	21.9 µM (inactive)	20.5 µM (inactive)	22.1 µM (inactive)
CN(C)CCn1c(=O)oc2cc(C(=O)CN3CCOCC3)ccc21	> 100 µM (inactive)	> 100 µM (inactive)	> 100 µM (inactive)	> 100 µM (inactive)	> 100 µM (inactive)	> 100	> 100 µM (inactive)	> 100 µM (inactive)	> 100 µM (inactive)	> 100 µM (inactive)	> 100 µM (inactive)		> 100 µM (inactive)	> 100 µM (inactive)	> 100 µM (inactive)	> 100 µM (inactive)	88.1 µM (inactive)	> 100 µM (inactive)	> 100 µM (inactive)	> 100 µM (inactive)
Cc1ccc(C)n1-n1c(Cc2ccccc2)n[nH]c1=O	> 100 µM (inactive)	> 100 µM (inactive)	> 100 µM (inactive)	22.2 µM (inactive)	> 100 µM (inactive)	> 100	> 100 µM (inactive)	> 100 µM (inactive)	> 100 µM (inactive)	> 100 µM (inactive)	> 100 µM (inactive)		76.7 µM (inactive)	> 100 µM (inactive)	> 100 µM (inactive)	> 100 µM (inactive)	> 100 µM (inactive)	> 100 µM (inactive)	> 100 µM (inactive)	> 100 µM (inactive)
Cn1cc(C=C(C#N)C#N)c(=O)n(C)c1=O		> 100 µM (inactive)	> 100 µM (inactive)	> 100 µM (inactive)	> 100 µM (inactive)	> 100	> 100 µM (inactive)	> 100 µM (inactive)	> 100 µM (inactive)	> 100 µM (inactive)	> 100 µM (inactive)	> 100 µM (inactive)	> 100 µM (inactive)	> 100 µM (inactive)	> 100 µM (inactive)	56.1 µM (inactive)	> 100 µM (inactive)	> 100 µM (inactive)	> 100 µM (inactive)	
Cc1ccc(S(=O)(=O)NC(CN)C(=O)O)cc1 (centres undefined)			> 100 µM (inactive)	> 100 µM (inactive)	> 100 µM (inactive)	> 100	> 100 µM (inactive)	> 100 µM (inactive)	> 100 µM (inactive)	> 100 µM (inactive)	> 100 µM (inactive)	> 100 µM (inactive)	> 100 µM (inactive)	> 100 µM (inactive)	> 100 µM (inactive)	> 100 µM (inactive)	> 100 µM (inactive)	> 100 µM (inactive)	> 100 µM (inactive)	> 100 µM (inactive)
O=c1cc(CN2CCCCC2)nc2ccc3c(O)cc(CN4CCCCC4)nc3n12	> 100 µM (inactive)	> 100 µM (inactive)	> 100 µM (inactive)	> 100 µM (inactive)	> 100 µM (inactive)	> 100	> 100 µM (inactive)	> 100 µM (inactive)	> 100 µM (inactive)	> 100 µM (inactive)	> 100 µM (inactive)	26.2 µM (inactive)	> 100 µM (inactive)	> 100 µM (inactive)	> 100 µM (inactive)	> 100 µM (inactive)	> 100 µM (inactive)	> 100 µM (inactive)	> 100 µM (inactive)	
COC(OC)[C@@H]1OC[C@H](n2ccc(=O)[nH]c2=O)[C@H]1O	> 100 µM (inactive)	> 100 µM (inactive)	> 100 µM (inactive)	> 100 µM (inactive)	> 100 µM (inactive)	> 100	> 100 µM (inactive)	> 100 µM (inactive)	> 100 µM (inactive)	> 100 µM (inactive)	> 100 µM (inactive)	> 100 µM (inactive)	> 100 µM (inactive)	67.3 µM (inactive)	> 100 µM (inactive)	> 100 µM (inactive)	> 100 µM (inactive)	> 100 µM (inactive)	> 100 µM (inactive)	
O=C1C=C/C(=N/c2cccc3c(/N=C4/C=CC(=O)O4)cccc23)O1		29.9 µM (inactive)	28.3 µM (inactive)	> 100 µM (inactive)	86.3 µM (inactive)	37.3	41.8 µM (inactive)	58.5 µM (inactive)	> 100 µM (inactive)	> 100 µM (inactive)	69.5 µM (inactive)	42.7 µM (inactive)	20.2 µM (inactive)	> 100 µM (inactive)	52.6 µM (inactive)	16.4 µM (inactive)	> 100 µM (inactive)	29.2 µM (inactive)	44.5 µM (inactive)	22.2 µM (inactive)
CCOC(=O)/C(=N\Nc1ccc(-n2c(C)nc3ccc(Br)cc3c2=O)cc1)C(C)=O	31.1 µM (inactive)	> 100 µM (inactive)	88.7 µM (inactive)	30.7 µM (inactive)	47 µM (inactive)	64.4	> 100 µM (inactive)	> 100 µM (inactive)	13.1 µM (inactive)	29.1 µM (inactive)	31.9 µM (inactive)	38 µM (inactive)	54.3 µM (inactive)	52.1 µM (inactive)	67.6 µM (inactive)	> 100 µM (inactive)	29.8 µM (inactive)	62.4 µM (inactive)	50.6 µM (inactive)	
COc1cc2c(c(OC)c1OC)-c1ccc(SC)cc1[C@H](OC(=O)c1ccccc1)CC2	0.0488 µM (active)	0.254 µM (active)	0.0571 µM (active)	> 100 µM (inactive)	0.309 µM (active)	0.0667	0.122 µM (active)	0.145 µM (active)	0.0697 µM (active)	0.132 µM (active)	0.284 µM (active)	0.286 µM (active)	0.188 µM (active)	0.0828 µM (active)	0.214 µM (active)	0.0313 µM (active)	0.145 µM (active)	0.0519 µM (active)	0.0168 µM (active)	
